Values of other authors in paper PMC8597174 (Clinical Pharmacology in Drug Development, 2021).

Substance: salmon calcitonin
- Effect of dosing after meal intake on maximum concentration and AUC: significant reduction in maximum concentration and AUC
